Measured values published in patent US11918568B2, “Fused ring compound having urea structure” (DAIICHI SANKYO COMPANY, LIMITED, priority 2018, dated 2024).

What was measured:
HEK293A cells = assay: Effect of NAMPT activator on the intracellular NAD+ level (in vitro cell-based assay); details: HEK293-A, 3 h culture with compound, NAD+/NADH-Glo assay, read-out: EC50 (intracellular NAD+ content)
Method: HEK293A cells were cultured in Dulbecco's Modified Eagle Medium (DMEM (high glucose)) containing 10% fetal bovine serum (FBS), non-essential amino acid (NEAA), and antibiotic-antimycotic [reaction medium]. On the day before the test, HEK293A cells were inoculated at a ratio of 3.0×10^4 cells/80 μL to 96 well poly-D-lysine coated plate and cultured overnight in a CO2 incubator.
On the day of the test, each test compound diluted with reaction medium to a concentration of 5 times the final concentration was added at a ratio of 20 μL/well, and the cells were further cultured for 3 h. After removal of the medium, the cells were lysed in 50 μL/well of Bicarbonate Base Buffer (100 mM sodium carbonate, 20 mM sodium bicarbonate, 100 mM nicotinamide, 20 mM Triton X-100) containing 1% dodecyl trimethyl-ammonium bromide (DTAB). The NAD^+ content in the cell extract was measured using NAD^+/NADH-Glo assay kit according to the manufacturer's instructions. Hereinafter, the procedures will be briefly described. 20 μL of the lysate was separated, and 10 μL of 0.4 N HCL was added thereto, followed by incubation at 60° C. for 15 min and subsequently at 25° C. for 10 min. The mixture was neutralized by the addition of 10 μL of 0.5 M Trizma base solution and then diluted 10-fold with distilled water. 15 μL of the diluted sample was mixed with an equal amount (15 μL) of NAD^+/NADH-Glo reagent in 384 well black plate, and the mixture was incubated for 30 min in the dark. Then, chemiluminescence intensity was measured.
EC50 value of each compound was calculated from the calculated values of the compound at various concentrations using GraphPad Prism software (Table 2).

human NAMPT enzyme = human NAMPT enzyme (Homo sapiens (Human), UniProt P43490); assay: NAMPT enzyme activating effect (in vitro cell-free enzyme assay); format: biochemical; details: 2 ng/mL human NAMPT enzyme, 1-h incubation at 25° C., fluorescence of NMN derivative
Chain of human NAMPT enzyme (P43490 whole entry): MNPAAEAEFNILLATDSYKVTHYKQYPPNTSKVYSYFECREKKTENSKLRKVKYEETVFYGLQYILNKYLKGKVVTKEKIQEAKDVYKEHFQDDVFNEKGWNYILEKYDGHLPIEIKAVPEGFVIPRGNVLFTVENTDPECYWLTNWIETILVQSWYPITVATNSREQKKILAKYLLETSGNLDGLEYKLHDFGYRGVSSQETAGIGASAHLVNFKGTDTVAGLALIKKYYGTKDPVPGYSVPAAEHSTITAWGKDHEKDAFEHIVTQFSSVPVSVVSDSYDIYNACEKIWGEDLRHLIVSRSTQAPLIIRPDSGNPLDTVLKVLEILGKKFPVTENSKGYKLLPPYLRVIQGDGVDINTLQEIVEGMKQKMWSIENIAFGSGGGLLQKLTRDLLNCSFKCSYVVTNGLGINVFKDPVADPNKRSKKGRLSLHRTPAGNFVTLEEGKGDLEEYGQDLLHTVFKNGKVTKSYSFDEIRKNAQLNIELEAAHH
Method: The NAMPT enzyme assay was conducted in accordance with the method of Formentini et al. […] Hereinafter, the procedures will be briefly described. The NAMPT enzyme reaction was carried out using polypropylene 384 well V shaped black plate (Greiner Bio One International GmbH). […] Then, 22 μL of 88% formic acid was added and the mixture was further incubated for 30 min in the dark. The NAMPT enzyme activity was calculated as the difference between fluorescence intensity (Ex 380 nm/Em 450 nm) from the reaction of a test compound treatment group and fluorescence intensity from control reaction free from the NAMPT enzyme. [NAMPT enzyme activity]=[Fluorescence intensity of the test substance treatment group]−[Mean fluorescence intensity of the control reaction free from the NAMPT enzyme] EC50 value of each compound was calculated from the enzyme activities of the compound at various concentrations by using GraphPad Prism software (GraphPad Software) (Table 1)

SMILES	EC50 (human NAMPT enzyme)	EC50 (HEK293A cells)
O=C(NCc1ccncc1)Nc1ccc2oc(-c3ccccc3)nc2c1 [Example 7, N-(2-Phenyl-1,3-benzoxazol-5-yl)-N′-[(pyridin-4-yl)methyl]urea]	410 nM	540 nM
O=C(NCc1ccncc1)Nc1ccc2nc(-c3ccccc3)nn2c1 [Example 8, N-(2-Phenyl[1,2,4]triazolo[1,5-a]pyridin-6-yl)-N′-[(pyridin-4-yl)methyl]urea]	80 nM	210 nM
N#Cc1c2ccc(NC(=O)NCc3ccncc3)cc2nn1-c1ccccc1 [Example 21, N-(3-Cyano-2-phenyl-2H-indazol-6-yl)-N′-[(pyridin-4-yl)methyl]urea]	110 nM	230 nM
O=C(NCc1ccncc1)Nc1ccc2cn(-c3ccccc3)nc2c1 [Example 26, N-(2-Phenyl-2H-indazol-6-yl)-N′-[(pyridin-4-yl)methyl]urea]	40 nM	–
CS(=O)(=O)c1cccc(-n2cc3ccc(NC(=O)NCc4ccncc4)cc3n2)c1 [Example 27, N-{2-[3-(Methanesulfonyl)phenyl]-2H-indazol-6-yl}-N′-[(pyridin-4-yl)methyl]urea]	130 nM	–
COCCOc1ccccc1-n1cc2ccc(NC(=O)NCc3ccncc3)cc2n1 [Example 29, N-{2-[2-(2-Methoxyethoxy)phenyl]-2H-indazol-6-yl}-N′-[(pyridin-4-yl)methyl]urea]	60 nM	–
COc1cccc(-n2cc3ccc(NC(=O)NCc4ccncc4)cc3n2)c1 [Example 30, N-[2-(3-Methoxyphenyl)-2H-indazol-6-yl]-N′-[(pyridin-4-yl)methyl]urea]	10 nM	–
O=C(NCc1ccncc1)Nc1cnc2cc(-c3ccccc3)nn2c1 [Example 31, N-(2-Phenylpyrazolo[1,5-a]pyrimidin-6-yl)-N′-[(pyridin-4-yl)methyl]urea]	430 nM	–
COc1cc(-n2nc3cc(NC(=O)NCc4ccncc4)ccc3c2C#N)ccn1 [Example 33, N-[3-Cyano-2-(2-methoxypyridin-4-yl)-2H-indazol-6-yl]-N′-[(pyridin-4-yl)methyl]urea]	130 nM	–
CC(=O)N1c2ccc(NC(=O)NCc3ccncc3)cc2CC1c1ccccc1 (centres unmarked) [Example 34, N-(1-Acetyl-2-phenyl-2,3-dihydro-1H-indol-5-yl)-N′-[(pyridin-4-yl)methyl]urea]	180 nM	–
COC(=O)Cn1c(-c2ccccc2)cc2cc(NC(=O)NCc3ccncc3)ccc21 [Example 35, Methyl [2-phenyl-5-({[(pyridin-4-yl)methyl]carbamoyl}amino)-1H-indol-1-yl]acetate]	560 nM	–
COCCOc1cccc(-c2cc3cc(NC(=O)NCc4ccncc4)ccc3n2C)c1 [Example 37, N-{2-[3-(2-Methoxyethoxy)phenyl]-1-methyl-1H-indol-5-yl}-N′-[(pyridin-4-yl)methyl]urea]	160 nM	–
Cn1c(-c2ccccn2)cc2cc(NC(=O)NCc3ccncc3)ccc21 [Example 39, N-[1-Methyl-2-(pyridin-2-yl)-1H-indol-5-yl]-N′-[(pyridin-4-yl)methyl]urea]	530 nM	–
O=C(NCc1ccncc1)Nc1ccc2c(c1)cc(-c1ccccc1)n2CC1COCCO1 (centres unmarked) [Example 40, N-{1-[(1,4-Dioxan-2-yl)methyl]-2-phenyl-1H-indol-5-yl}-N′-[(pyridin-4-yl)methyl]urea]	190 nM	–
CN(C)C(=O)n1c(-c2ccccc2)cc2cc(NC(=O)NCc3ccncc3)ccc21 [Example 41, N,N-Dimethyl-2-phenyl-5-({[(pyridin-4-yl)methyl]carbamoyl}amino)-1H-indole-1-carboxamide]	290 nM	–
Cn1c(-c2ccccc2)cc2cc(NC(=O)NCc3ccncc3)ccc21 [Example 42, N-(1-Methyl-2-phenyl-1H-indol-5-yl)-N′-[(pyridin-4-yl)methyl]urea]	100 nM	–
O=C(NCc1cnco1)Nc1ccc2cn(-c3ccccc3)nc2c1 [Example 43, N-[(1,3-Oxazol-5-yl)methyl]-N′-(2-phenyl-2H-indazol-6-yl)urea]	140 nM	–
O=C(NCc1ccncc1)Nc1ccc2cn(-c3cccc(OC(F)F)c3)nc2c1 [Example 44, N-{2-[3-(Difluoromethoxy)phenyl]-2H-indazol-6-yl}-N′-[(pyridin-4-yl)methyl]urea]	110 nM	–
CC(C)Cn1ncc2cc(NC(=O)NCc3ccncc3)ccc21 [Example 46, N-[1-(2-Methylpropyl)-1H-indazol-5-yl]-N′-[(pyridin-4-yl)methyl]urea]	790 nM	–
COCCN1CC(c2ccccc2)Oc2cc(NC(=O)NCc3ccncc3)ccc21 (centres unmarked) [Example 48, N-[4-(2-Methoxyethyl)-2-phenyl-3,4-dihydro-2H-1,4-benzoxazin-7-yl]-N′-[(pyridin-4-yl)methyl]urea]	650 nM	–
CCNC(=O)N1CC(c2ccccc2Cl)Oc2cc(NC(=O)NCc3ccncc3)ccc21 (centres unmarked) [Example 49, 2-(2-Chlorophenyl)-N-ethyl-7-({[(pyridin-4-yl)methyl]carbamoyl}amino)-2,3-dihydro-4H-1,4-benzoxazine-4-carboxamide]	130 nM	–
COc1cccc(C2Cc3ccc(NC(=O)NCc4ccncc4)cc3O2)c1 (centres unmarked) [Example 52, N-[2-(3-Methoxyphenyl)-2,3-dihydro-1-benzofuran-6-yl]-N′-[(pyridin-4-yl)methyl]urea]	80 nM	1240 nM
O=C(NCc1ccncc1)Nc1ccc2c(c1)OCC2c1ccccc1 (centres unmarked) [Example 54, N-(3-Phenyl-2,3-dihydro-1-benzofuran-6-yl)-N′-[(pyridin-4-yl)methyl]urea]	270 nM	–
O=C(NCc1ccncc1)Nc1ccc2c(C(=O)N3CC4CCC(C3)O4)noc2c1 [Example 57, N-[3-(8-Oxa-3-azabicyclo[3.2.1]octane-3-carbonyl)-1,2-benzoxazol-6-yl]-N′-[(pyridin-4-yl)methyl]urea]	190 nM	–

Second part, led by results:

EC50 (human NAMPT enzyme)	SMILES	EC50 (HEK293A cells)
110 nM	Cc1ccccc1-c1nc2ccc(NC(=O)NCc3ccncc3)cc2o1 [Example 1, N-[2-(2-Methylphenyl)-1,3-benzoxazol-6-yl]-N′-[(pyridin-4-yl)methyl]urea]	430 nM
80 nM	Cn1nccc1-c1c(-c2ccccc2)nn2cc(NC(=O)NCc3ccncc3)ccc12 [Example 22, N-[3-(1-Methyl-1H-pyrazol-5-yl)-2-phenylpyrazolo[1,5-a]pyridin-6-yl]-N′-[(pyridin-4-yl)methyl]urea]	120 nM
1000 nM	Cc1c2ccc(NC(=O)NCc3ccncc3)cc2nn1-c1ccccc1 [Example 28, N-(3-Methyl-2-phenyl-2H-indazol-6-yl)-N′-[(pyridin-4-yl)methyl]urea]	–
130 nM	COCCn1c(-c2ccccc2)cc2cc(NC(=O)NCc3ccncc3)ccc21 [Example 36, N-[1-(2-Methoxyethyl)-2-phenyl-1H-indol-5-yl]-N′-[(pyridin-4-yl)methyl]urea]	–
620 nM	Cn1c(-c2cccc(S(C)(=O)=O)c2)cc2cc(NC(=O)NCc3ccncc3)ccc21 [Example 38, N-{2-[3-(Methanesulfonyl)phenyl]-1-methyl-1H-indol-5-yl}-N′-[(pyridin-4-yl)methyl]urea]	–
60 nM	COc1cccc(-c2cc3ccc(NC(=O)NCc4ccncc4)cn3n2)c1 [Example 45, N-[2-(3-Methoxyphenyl)pyrazolo[1,5-a]pyridin-6-yl]-N′-[(pyridin-4-yl)methyl]urea]	–
240 nM	CCN(CC)C(=O)c1noc2cc(NC(=O)NCc3ccncc3)ccc12 [Example 50, N,N-Diethyl-6-({[(pyridin-4-yl)methyl]carbamoyl}amino)-1,2-benzoxazole-3-carboxamide]	450 nM
120 nM	O=C(NCc1ccncc1)Nc1ccc2c(c1)OC(c1ccccc1)C2 (centres unmarked) [Example 51, N-(2-Phenyl-2,3-dihydro-1-benzofuran-6-yl)-N′-[(pyridin-4-yl)methyl]urea]	–
490 nM	CCN(CC)C(=O)c1coc2cc(NC(=O)NCc3ccncc3)ccc12 [Example 55, N,N-Diethyl-6-({[(pyridin-4-yl)methyl]carbamoyl}amino)-1-benzofuran-3-carboxamide]	–
30 nM	CCN(Cc1ccccc1)C(=O)c1noc2cc(NC(=O)NCc3ccncc3)ccc12 [Example 56, N-Benzyl-N-ethyl-6-({[(pyridin-4-yl)methyl]carbamoyl}amino)-1,2-benzoxazole-3-carboxamide]	–
